Drawing on ChEMBL document CHEMBL1909046, “DrugMatrix in vitro pharmacology data”, this text covers IC50 and Ki for 19 compounds.

The target of one series is Cytochrome P450 3A4 (Homo sapiens, UniProt P08684). Particulars: bti-tn-5b1-4. Further: in other assays of this panel Not Active means under 50% inhibition at 10 µM.
A short description of series [1]: DRUGMATRIX: Sigma2 radioligand binding (ligand: [3H] Ifenprodil). The class given is cell membranes, Rattus norvegicus, Wistar, Brain, Membrane. The conditions noted are these: Not Active = under 50% inhibition at 10 µM.
For the next series, the target named is T1, Progesterone receptor (Bos taurus, UniProt Q690N0).
T1 sequence (Q690N0 whole entry): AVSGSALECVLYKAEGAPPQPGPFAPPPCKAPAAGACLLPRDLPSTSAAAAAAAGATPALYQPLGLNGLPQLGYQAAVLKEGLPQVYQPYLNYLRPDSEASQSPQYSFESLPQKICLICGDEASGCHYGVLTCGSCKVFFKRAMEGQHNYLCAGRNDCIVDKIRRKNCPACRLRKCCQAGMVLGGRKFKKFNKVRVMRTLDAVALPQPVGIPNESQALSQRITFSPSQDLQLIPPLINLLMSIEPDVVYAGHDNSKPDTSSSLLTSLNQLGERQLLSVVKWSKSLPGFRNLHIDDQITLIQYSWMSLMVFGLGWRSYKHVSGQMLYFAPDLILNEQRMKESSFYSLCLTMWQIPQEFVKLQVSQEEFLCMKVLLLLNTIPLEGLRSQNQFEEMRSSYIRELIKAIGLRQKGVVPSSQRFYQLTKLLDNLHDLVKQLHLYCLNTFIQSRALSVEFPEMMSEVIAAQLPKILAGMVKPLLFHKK
The series is described as follows: DRUGMATRIX: Progesterone radioligand binding (ligand: [3H] R-5020). The class given is tissue-based, Uterus. The conditions noted are these: Not Active = under 50% inhibition at 10 µM.

The target in series [2] is C-C chemokine receptor type 2 (Homo sapiens, UniProt P41597). The class given is cell membranes, CHO-K1, Membrane. Further: in other assays of this panel Not Active means under 50% inhibition at 10 µM.
Chain of C-C chemokine receptor type 2 (P41597 whole entry): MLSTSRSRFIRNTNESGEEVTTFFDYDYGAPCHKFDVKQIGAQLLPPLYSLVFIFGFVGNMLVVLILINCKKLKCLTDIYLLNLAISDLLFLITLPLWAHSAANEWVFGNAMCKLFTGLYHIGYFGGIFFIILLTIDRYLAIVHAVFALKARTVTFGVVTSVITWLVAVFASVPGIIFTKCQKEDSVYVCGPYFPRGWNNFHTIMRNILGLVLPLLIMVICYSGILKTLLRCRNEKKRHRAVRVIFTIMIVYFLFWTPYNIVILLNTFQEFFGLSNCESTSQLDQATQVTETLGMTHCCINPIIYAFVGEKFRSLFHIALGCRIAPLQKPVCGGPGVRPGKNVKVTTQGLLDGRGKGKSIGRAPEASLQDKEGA
A short description of series [3]: DRUGMATRIX: Imidazoline I2, Central radioligand binding (ligand: [3H] Idazoxan). The class given is cell membranes, Rattus norvegicus, Wistar, Cerebral cortex, Membrane. The conditions noted are these: Not Active = under 50% inhibition at 10 µM.
For series [4], the target named is Voltage-gated inwardly rectifying potassium channel KCNH2 (Homo sapiens, UniProt Q12809). Particulars: hek293. Further: in other assays of this panel Not Active means under 50% inhibition at 10 µM.
Chain of Voltage-gated inwardly rectifying potassium channel KCNH2 (Q12809 whole entry): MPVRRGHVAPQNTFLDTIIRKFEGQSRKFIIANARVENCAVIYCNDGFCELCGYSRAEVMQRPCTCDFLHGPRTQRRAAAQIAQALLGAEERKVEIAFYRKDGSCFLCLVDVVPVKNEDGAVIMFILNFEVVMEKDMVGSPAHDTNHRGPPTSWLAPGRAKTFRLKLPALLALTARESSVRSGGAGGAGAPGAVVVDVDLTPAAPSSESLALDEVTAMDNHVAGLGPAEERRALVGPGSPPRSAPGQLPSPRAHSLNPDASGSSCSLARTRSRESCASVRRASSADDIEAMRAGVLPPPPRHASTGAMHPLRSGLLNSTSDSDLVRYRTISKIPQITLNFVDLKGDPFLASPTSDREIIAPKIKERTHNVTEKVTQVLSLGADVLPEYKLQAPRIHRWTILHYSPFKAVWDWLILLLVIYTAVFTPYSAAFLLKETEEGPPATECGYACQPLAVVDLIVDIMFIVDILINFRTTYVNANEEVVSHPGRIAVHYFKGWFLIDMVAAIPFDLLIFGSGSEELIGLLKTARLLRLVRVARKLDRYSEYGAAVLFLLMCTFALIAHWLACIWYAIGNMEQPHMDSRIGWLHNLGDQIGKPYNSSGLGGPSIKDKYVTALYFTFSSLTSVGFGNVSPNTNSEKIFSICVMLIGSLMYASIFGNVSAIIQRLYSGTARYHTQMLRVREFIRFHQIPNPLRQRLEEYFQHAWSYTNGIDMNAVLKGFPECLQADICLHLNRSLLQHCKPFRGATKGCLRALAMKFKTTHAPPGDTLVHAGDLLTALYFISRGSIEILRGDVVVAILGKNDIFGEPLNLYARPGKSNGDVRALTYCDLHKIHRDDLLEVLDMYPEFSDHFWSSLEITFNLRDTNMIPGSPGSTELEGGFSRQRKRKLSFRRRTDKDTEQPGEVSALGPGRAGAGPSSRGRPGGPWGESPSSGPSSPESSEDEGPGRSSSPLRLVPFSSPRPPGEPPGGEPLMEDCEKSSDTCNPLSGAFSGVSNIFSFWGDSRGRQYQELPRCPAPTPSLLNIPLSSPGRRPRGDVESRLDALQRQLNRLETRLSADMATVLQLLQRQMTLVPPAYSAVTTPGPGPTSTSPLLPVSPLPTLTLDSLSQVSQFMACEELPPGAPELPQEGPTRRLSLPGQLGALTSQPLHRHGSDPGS

Chain of Cytochrome P450 3A4 (P08684 whole entry): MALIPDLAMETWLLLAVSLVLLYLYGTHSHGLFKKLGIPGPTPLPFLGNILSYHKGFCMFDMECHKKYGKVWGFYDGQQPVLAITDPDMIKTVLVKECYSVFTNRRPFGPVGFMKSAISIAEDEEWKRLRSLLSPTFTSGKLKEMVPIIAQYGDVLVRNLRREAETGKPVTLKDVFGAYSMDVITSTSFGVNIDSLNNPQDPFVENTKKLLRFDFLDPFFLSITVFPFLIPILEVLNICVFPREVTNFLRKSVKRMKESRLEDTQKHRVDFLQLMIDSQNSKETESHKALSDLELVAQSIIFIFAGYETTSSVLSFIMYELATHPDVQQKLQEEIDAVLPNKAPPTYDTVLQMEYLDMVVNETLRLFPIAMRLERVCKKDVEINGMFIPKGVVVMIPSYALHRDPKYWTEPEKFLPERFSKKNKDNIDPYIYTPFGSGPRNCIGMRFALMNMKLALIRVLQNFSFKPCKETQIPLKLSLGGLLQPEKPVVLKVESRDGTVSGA

Take `C=C1/C(=C\C=C2/CCC[C@]3(C)[C@@H]([C@H](C)CCCC(C)C)CC[C@@H]23)C[C@@H](O)C[C@@H]1O` [ALFACALCIDOL]: the IC50 result (at Cytochrome P450 3A4; in series [1]; on Progesterone receptor; in series [2] (cho-k1); in series [3]; in series [4]) was “Not Active” in each case. Further, the Ki result (on Cytochrome P450 3A4; in series [1]; in series [3]; in series [4]) was “Not Active” throughout.
As to `CCCCCC[C@H]1C(=O)O[C@H](C)[C@H](NC(=O)c2cccc(NC=O)c2O)C(=O)O[C@@H](C)[C@@H]1OC(=O)CC(C)C` [ANTIMYCIN A], the concentration for half-maximal inhibition (IC50) entry (on Cytochrome P450 3A4; in series [1]; at Progesterone receptor; in series [2] (cho-k1); in series [3]; in series [4]) was “Not Active” each time. Further, the Ki entry (at Cytochrome P450 3A4; in series [1]; in series [3]; in series [4]) was “Not Active” throughout.
For the compound `CO[C@H]1[C@@H](O)[C@H](N)[C@@H](O[C@H]2O[C@H]([C@H](C)N)CC[C@H]2N)[C@H](O)[C@@H]1N(C)C(=O)CN` [ASTROMICIN], the IC50 entry (at Cytochrome P450 3A4; in series [1]; on Progesterone receptor; in series [2] (cho-k1); in series [3]; in series [4]) was “Not Active” each time. Besides, the Ki entry (at Cytochrome P450 3A4; in series [1]; in series [3]; in series [4]) was “Not Active” in each case.
As to `[N-]=[N+]=CC(=O)OC[C@H](N)C(=O)O` [AZASERINE], the IC50 result (on Cytochrome P450 3A4; in series [1]; on Progesterone receptor; in series [2] (cho-k1); in series [3]; in series [4]) was “Not Active” each time. The Ki result (on Cytochrome P450 3A4; in series [1]; in series [3]; in series [4]) was “Not Active” throughout.
In the case of `CC(C)(C)c1ccc(S(=O)(=O)/C=C/C#N)cc1` [BAY-11-7085], the IC50 entry on Cytochrome P450 3A4 is “Not Active”; in series [1], “Not Active”; on Progesterone receptor, “Not Active”; in series [2] (read-out: IC50) it was 4180 nM; in series [3] it was “Not Active”; in series [4] it was “Not Active”. Also, the inhibition constant Ki entry on Cytochrome P450 3A4 is “Not Active”; in series [1] it was “Not Active”; in series [2] (read-out: Ki), 1610 nM; in series [3] it was “Not Active”; in series [4], “Not Active”.
For the compound `CCc1oc2ccccc2c1C(=O)c1cc(Br)c(O)c(Br)c1` [BENZBROMARONE], the IC50 result (against Cytochrome P450 3A4; in series [1]; on Progesterone receptor; in series [2] (cho-k1); in series [3]; in series [4]) was “Not Active” each time. The Ki entry (at Cytochrome P450 3A4; in series [1]; in series [3]; in series [4]) was “Not Active” each time.
Take `O=c1cc(-c2ccccc2)oc2ccc3ccccc3c12` [BETA-NAPHTHOFLAVONE]: the half-maximal inhibitory concentration (IC50) entry (on Cytochrome P450 3A4; in series [1]; on Progesterone receptor; in series [2] (cho-k1); in series [3]; in series [4]) was “Not Active” in each case. In addition, the Ki result (at Cytochrome P450 3A4; in series [1]; in series [3]; in series [4]) was “Not Active” throughout.
With `CS(=O)(=O)OCCCCOS(C)(=O)=O` [BUSULFAN], the IC50 result (on Cytochrome P450 3A4; in series [1]; on Progesterone receptor; in series [2] (cho-k1); in series [3]; in series [4]) was “Not Active” in each case. In addition, the inhibition constant Ki entry (on Cytochrome P450 3A4; in series [1]; in series [3]; in series [4]) was “Not Active” in each case.
In the case of `O=C(/C=C/c1ccc(O)c(O)c1)OCCc1ccccc1` [CAFFEIC ACID PHENETHYL ESTER], the IC50 entry (against Cytochrome P450 3A4; in series [1]; at Progesterone receptor; in series [2] (cho-k1); in series [3]; in series [4]) was “Not Active” each time. Also, the Ki entry (at Cytochrome P450 3A4; in series [1]; in series [3]; in series [4]) was “Not Active” throughout.
For `COc1cc(CNC(=O)CCCC/C=C/C(C)C)ccc1O` [CAPSAICIN], the IC50 entry (against Cytochrome P450 3A4; in series [1]; on Progesterone receptor; in series [2] (cho-k1); in series [3]; in series [4]) was “Not Active” throughout. The Ki entry (at Cytochrome P450 3A4; in series [1]; in series [3]; in series [4]) was “Not Active” in each case.
Consider `NC(=O)N1c2ccccc2C=Cc2ccccc21` [CARBAMAZEPINE], for which the IC50 entry (against Cytochrome P450 3A4; in series [1]; on Progesterone receptor; in series [2] (cho-k1); in series [3]; in series [4]) was “Not Active” in each case. Further, the Ki result (at Cytochrome P450 3A4; in series [1]; in series [3]; in series [4]) was “Not Active” in each case.
For `CCOC(=O)n1ccn(C)c1=S` [CARBIMAZOLE], the IC50 result (against Cytochrome P450 3A4; in series [1]; at Progesterone receptor; in series [2] (cho-k1); in series [3]; in series [4]) was “Not Active” in each case. The Ki result (on Cytochrome P450 3A4; in series [1]; in series [3]; in series [4]) was “Not Active” throughout.
For the compound `Oc1ccccc1O` [CATECHOL], the IC50 result (at Cytochrome P450 3A4; in series [1]; on Progesterone receptor; in series [2] (cho-k1); in series [3]; in series [4]) was “Not Active” in each case. Also, the Ki result (at Cytochrome P450 3A4; in series [1]; in series [3]; in series [4]) was “Not Active” each time.
In the case of `CO[C@@]1(NC(=O)CSCC#N)C(=O)N2C(C(=O)O)=C(CSc3nnnn3C)CS[C@@H]21` [CEFMETAZOLE], the IC50 entry (against Cytochrome P450 3A4; in series [1]; at Progesterone receptor; in series [2] (cho-k1); in series [3]; in series [4]) was “Not Active” each time. Besides, the inhibition constant Ki entry (at Cytochrome P450 3A4; in series [1]; in series [3]; in series [4]) was “Not Active” each time.
As for `CN(C(=O)CCCOc1ccc2[nH]c(=O)ccc2c1)C1CCCCC1` [CILOSTAMIDE], the IC50 entry (against Cytochrome P450 3A4; in series [1]; at Progesterone receptor; in series [2] (cho-k1); in series [3]; in series [4]) was “Not Active” each time. Further, the Ki entry (on Cytochrome P450 3A4; in series [1]; in series [3]; in series [4]) was “Not Active” each time.
For the compound `CC(C)(Oc1ccc(C2CC2(Cl)Cl)cc1)C(=O)O` (stereo unspecified) [CIPROFIBRATE], the IC50 result (against Cytochrome P450 3A4; in series [1]; on Progesterone receptor; in series [2] (cho-k1); in series [3]; in series [4]) was “Not Active” in each case. The Ki result (at Cytochrome P450 3A4; in series [1]; in series [3]; in series [4]) was “Not Active” throughout.
For `Nc1nc(Cl)nc2c1ncn2[C@H]1C[C@H](O)[C@@H](CO)O1` [CLADRIBINE], the IC50 result (at Cytochrome P450 3A4; in series [1]; on Progesterone receptor; in series [2] (cho-k1); in series [3]; in series [4]) was “Not Active” each time. The Ki result (on Cytochrome P450 3A4; in series [1]; in series [3]; in series [4]) was “Not Active” each time.
Consider `CC[C@H]1OC(=O)[C@H](C)[C@@H](O[C@H]2C[C@@](C)(OC)[C@@H](O)[C@H](C)O2)[C@H](C)[C@@H](O[C@@H]2O[C@H](C)C[C@H](N(C)C)[C@H]2O)[C@](C)(OC)C[C@@H](C)C(=O)[C@H](C)[C@@H](O)[C@]1(C)O` [CLARITHROMYCIN], for which the IC50 result (at Cytochrome P450 3A4; in series [1]; on Progesterone receptor; in series [2] (cho-k1); in series [3]; in series [4]) was “Not Active” in each case. Further, the Ki entry (on Cytochrome P450 3A4; in series [1]; in series [3]; in series [4]) was “Not Active” in each case.
Turning to `O=C(O)c1cc(=O)c2c(OCC(O)COc3cccc4oc(C(=O)O)cc(=O)c34)cccc2o1` [CROMOLYN], the IC50 result (on Cytochrome P450 3A4; in series [1]; on Progesterone receptor; in series [2] (cho-k1); in series [3]; in series [4]) was “Not Active” throughout. Also, the Ki entry (at Cytochrome P450 3A4; in series [1]; in series [3]; in series [4]) was “Not Active” in each case.
